Test results published in patent US20250179047A1, “5-[7-(3,4-DIHYDRO-1H-ISOQUINOLINE-2-CARBONYL)-1,2,3,4 TETRAHYDROISOQUINOLIN-6-YL]-1H-PYRROLE-3-CARBOXAMIDE DERIVATIVES, PHARMACEUTICAL COMPOSITIONS CONTAINING THEM AND THEIR USES AS PRO-APOPTOTIC AGENTS” (LES LABORATOIRES SERVIER, priority 2022, published 2025).

Legend:
[1] = target: BCL2 G101V (Homo sapiens, UniProt P10415, G101V); assay: TR-FRET competitive binding assay, BCL2 G101V; settings: BCL2 G101V; Ki determined from IC50; read-out: TR_FRET EKI_Bcl2 G101V
Outline: (§1)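 Terbium-labelled N-terminal Halo-fusion BCL2 or BCLXL (E. coli), 0.5 nM, competed against fluorescein-labelled PUMA peptide (2 or 20 nM) for 2 h at 23° C in 50 mM Hepes pH 7.5, 150 mM NaCl, 5% DMSO. TR-FRET 520/495 nm ratio gave IC50 by four-parameter fit; Ki derived from IC50.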

[2] = test system: BCL2 G101V; assay: TR-FRET competitive binding assay, BCL2 G101V; set-up: species or system human; settings: ratio Ki BCL2 G101V / Ki BCL2 WT
Outline: as §1

[3] = target: BCLXL WT (Homo sapiens (Human), UniProt Q07817); assay: TR-FRET competitive binding assay, BCLXL WT; settings: for Ki: BCLXL WT, Ki determined from IC50, read-out: TR_FRET EKI BclxL; for TR_FRET EKI BCLxL/WT selectivty ratio: ratio Ki BCLxL / Ki BCL2 WT
Chain of BCLXL WT (Q07817 other isoform, or with tags, fused parts or gaps): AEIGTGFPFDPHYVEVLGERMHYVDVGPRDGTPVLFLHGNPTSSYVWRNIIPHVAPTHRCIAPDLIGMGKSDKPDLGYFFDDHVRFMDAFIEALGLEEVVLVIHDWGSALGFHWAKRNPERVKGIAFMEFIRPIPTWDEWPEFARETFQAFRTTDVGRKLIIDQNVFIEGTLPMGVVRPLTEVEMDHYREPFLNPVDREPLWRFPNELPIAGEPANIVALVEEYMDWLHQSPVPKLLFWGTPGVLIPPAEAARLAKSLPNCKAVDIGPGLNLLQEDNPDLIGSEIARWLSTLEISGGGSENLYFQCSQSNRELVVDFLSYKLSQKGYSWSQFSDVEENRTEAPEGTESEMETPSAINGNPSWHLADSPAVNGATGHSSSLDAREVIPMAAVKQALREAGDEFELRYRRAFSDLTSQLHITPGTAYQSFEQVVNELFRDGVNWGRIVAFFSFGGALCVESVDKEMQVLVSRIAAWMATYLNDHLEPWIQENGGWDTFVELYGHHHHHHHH
Outline: as §1

[4] = target: BCL2 WT (Homo sapiens (Human), UniProt P10415); assay: TR-FRET competitive binding assay, BCL2 WT; settings: Ki determined from IC50, read-out: TR_FRET EKI_Bcl2 WT
Outline: as §1

[5] = test system: KMS-12-PE Bcl-2 WT; assay: In vitro cytotoxicity CellTiter-Glo 48 h, KMS-12-PE Bcl-2 WT; type: cell-based; settings: Homo sapiens, KMS-12-PE, C50 = concentration needed to reach 50% of the cellular viability
Outline: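 CTG luminescence read-out; C50 = concentration reaching 50% cellular viability. Cells: KMS-12-PE expressing Bcl-2 WT or G101V (lentiviral, TagRFP-sorted). 11-pt curve, 48 h, 37 °C/5% CO2.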

[6] = target: BCL2 D103Y (Homo sapiens, UniProt P10415, D103Y); assay: TR-FRET competitive binding assay, BCL2 D103Y; settings: Ki determined from IC50, read-out: TR_FRET EKI_Bcl2 D103Y
Outline: as §1

SMILES | Ki [1] | TR_FRET EKI G101V/WT selectivty ratio [2] | Ki [3] | TR_FRET EKI BCLxL/WT selectivty ratio [3] | Ki [4] | Ki [6] | IC50 [5]
Cc1c(C(=O)N(c2ccccc2)c2cnn(CCN(C)C)c2)cc(-c2cc3c(cc2C(=O)N2Cc4ccccc4C[C@H]2C)CN(C(=O)Cc2ccc(OCCC4CCOCC4)cc2)CC3)n1C [Example 207, N-[l-[2-(dimethylamino)ethyl]pyrazol-4-yl]-1,2-dimethyl-5-[7-[(3R)-3-methyl-3,4-dihydro-1H-isoquinoline-2-carbonyl]-2-[2-[4-(2-tetrahydropyran-4-ylethoxy)phenyl]acetyl]-3,4-dihydro-1H-isoquinolin-6-yl]-N-phenyl-pyrrole-3-carboxamide] | 1.4 nM | 68.8 | 3 nM | 150.0 | 0.02 nM | 0.04 nM | 0.023 µM
Cc1c(C(=O)N(c2ccccc2)c2cnn(C)c2)cc(-c2cc3c(cc2C(=O)N2Cc4ccccc4C[C@H]2C)CN(C(=O)Cc2ccc(OCCN(C)C)cc2)CC3)n1C [Example 208, 5-[2-[2-[4-[2-(dimethylamino)ethoxy]phenyl]acetyl]-7-[(3R)-3-methyl-3,4-dihydro-1H-isoquinoline-2-carbonyl]-3,4-dihydro-1H-isoquinolin-6-yl]-1,2-dimethyl-N-(1-methylpyrazol-4-yl)-N-phenyl-pyrrole-3-carboxamide] | 3.7 nM | 83.8 | 8.8 nM | 200.0 | 0.04 nM | 0.12 nM | 0.0301 µM
COc1ccc(N(C(=O)c2cc(-c3cc4c(cc3C(=O)N3Cc5ccccc5C[C@H]3C)CN(C(=O)Cc3ccc(OCCN5CCOCC5)cc3)CC4)n(C)c2C)c2ccc(F)cc2)cc1C#N [Example 209, N-(3-cyano-4-methoxy-phenyl)-N-(4-fluorophenyl)-1,2-dimethyl-5-[7-[(3R)-3-methyl-3,4-dihydro-1H-isoquinoline-2-carbonyl]-2-[2-[4-(2-morpholinoethoxy)phenyl]acetyl]-3,4-dihydro-1H-isoquinolin-6-yl]pyrrole-3-carboxamide] | 3.8 nM | 47.5 | 23 nM | 291.1 | 0.08 nM | 0.21 nM | 0.0486 µM
Cc1c(N(C(=O)c2cc(-c3cc4c(cc3C(=O)N3Cc5ccccc5C[C@H]3C)CN(C(=O)Cc3ccc(OCCN(C)C)cc3F)CC4)n(C)c2C)c2ccccc2)cc(C#N)n1C [Example 213, N-(5-cyano-1,2-dimethyl-pyrrol-3-yl)-5-[2-[2-[4-[2-(dimethylamino)ethoxy]-2-fluoro-phenyl]acetyl]-7-[(3R)-3-methyl-3,4-dihydro-1H-isoquinoline-2-carbonyl]-3,4-dihydro-1H-isoquinolin-6-yl]-1,2-dimethyl-N-phenyl-pyrrole-3-carboxamide] | 0.4 nM | 46.6 | 1 nM | 108.9 | 0.01 nM | 0.03 nM | 0.0053 µM

More lines, main results first:

Ki [1] | TR_FRET EKI G101V/WT selectivty ratio [2] | Ki [3] | TR_FRET EKI BCLxL/WT selectivty ratio [3] | Ki [4] | Ki [6] | SMILES | IC50 [5]
7.4 nM | 100.3 | 20 nM | 270.3 | 0.07 nM | 0.19 nM | COC[C@@H]1Cc2ccccc2CN1C(=O)c1cc2c(cc1-c1cc(C(=O)N(c3ccccc3)c3cnn(C(F)F)c3)c(C)n1C)CCN(C(=O)Cc1ccc(OCCN3CCOCC3)cc1)C2 [Example 205, N-[1-(difluoromethyl)pyrazol-4-yl]-5-[7-[(3S)-3-(methoxymethyl)-3,4-dihydro-1H-isoquinoline-2-carbonyl]-2-[2-[4-(2-morpholinoethoxy)phenyl]acetyl]-3,4-dihydro-1H-isoquinolin-6-yl]-1,2-dimethyl-N-phenyl-pyrrole-3-carboxamide] | 0.0126 µM
4.5 nM | 321.5 | 107 nM | 7642.9 | 0.014 nM | 0.09 nM | Cc1c(C(=O)N(c2ccccc2)c2cnn(C(F)F)c2)cc(-c2cc3c(cc2C(=O)N2Cc4ccccc4C[C@H]2CN2CC4(CCC4)C2)CN(C(=O)Cc2ccc(OCCN4CCOCC4)cc2)CC3)n1C [Example 206, 5-[7-[(3S)-3-(2-azaspiro[3.3]heptan-2-ylmethyl)-3,4-dihydro-1H-isoquinoline-2-carbonyl]-2-[2-[4-(2-morpholinoethoxy)phenyl]acetyl]-3,4-dihydro-1H-isoquinolin-6-yl]-N-[1-(difluoromethyl)pyrazol-4-yl]-1,2-dimethyl-N-phenyl-pyrrole-3-carboxamide] | 0.047 µM
4.1 nM | 118.3 | 29 nM | 828.6 | 0.04 nM | 0.11 nM | CCn1cc(N(C(=O)c2cc(-c3cc4c(cc3C(=O)N3Cc5ccccc5C[C@H]3C)CN(C(=O)Cc3ccc(OCCN5CCOCC5)cc3)CC4)n(C)c2C)c2ccccc2)c(C)n1 [Example 210, N-(1-ethyl-3-methyl-pyrazol-4-yl)-1,2-dimethyl-5-[7-[(3R)-3-methyl-3,4-dihydro-1H-isoquinoline-2-carbonyl]-2-[2-[4-(2-morpholinoethoxy)phenyl]acetyl]-3,4-dihydro-1H-isoquinolin-6-yl]-N-phenyl-pyrrole-3-carboxamide] | 0.0395 µM
5.3 nM | 72.1 | 26 nM | 351.4 | 0.07 nM | 0.18 nM | Cc1c(C(=O)N(c2ccccc2)c2cnn(C(F)F)c2)cc(-c2cc3c(cc2C(=O)N2Cc4ccccc4C[C@H]2CF)CN(C(=O)Cc2ccc(OCCN4CCOCC4)cc2)CC3)n1C [Example 211, N-[1-(difluoromethyl)pyrazol-4-yl]-5-[7-[(3S)-3-(fluoromethyl)-3,4-dihydro-1H-isoquinoline-2-carbonyl]-2-[2-[4-(2-morpholinoethoxy)phenyl]acetyl]-3,4-dihydro-1H-isoquinolin-6-yl]-1,2-dimethyl-N-phenyl-pyrrole-3-carboxamide] | 0.0157 µM
1.7 nM | 37.0 | 4.8 nM | 104.3 | 0.05 nM | 0.13 nM | Cc1c(C(=O)N(c2ccccc2)c2cnn(C(F)F)c2)cc(-c2cc3c(cc2C(=O)N2Cc4ccccc4C[C@H]2C)CN(C(=O)Cc2ccc(C#CCN4CCOCC4)cc2)CC3)n1C [Example 212, N-[1-(difluoromethyl)pyrazol-4-yl]-1,2-dimethyl-5-[7-[(3R)-3-methyl-3,4-dihydro-1H-isoquinoline-2-carbonyl]-2-[2-[4-(3-morpholinoprop-1-ynyl)phenyl]acetyl]-3,4-dihydro-1H-isoquinolin-6-yl]-N-phenyl-pyrrole-3-carboxamide] | 0.006 µM
0.7 nM | 13.3 | 8.6 nM | 168.6 | 0.05 nM | 0.12 nM | Cc1c(C(=O)N(c2ccccc2)c2cc(C#N)n(C(F)F)c2C)cc(-c2cc3c(cc2C(=O)N2Cc4ccccc4C[C@H]2C)CN(C(=O)Cc2ccc(OCCN4CCOCC4)cc2)CC3)n1C [Example 214, N-[5-cyano-1-(difluoromethyl)-2-methyl-pyrrol-3-yl]-1,2-dimethyl-5-[7-[(3R)-3-methyl-3,4-dihydro-1H-isoquinoline-2-carbonyl]-2-[2-[4-(2-morpholinoethoxy)phenyl]acetyl]-3,4-dihydro-1H-isoquinolin-6-yl]-N-phenyl-pyrrole-3-carboxamide] | 0.0035 µM
